From patent US8030300B2, “Ligands for nicotinic acetylcholine receptors, and methods of making and using them” (priority 2003, dated 2011)
Where two headings read alike, the source gives them in different places.

Tests used:
Assay in all cases: biochemical
Assay type in all cases: binding
[1] = molecular target: T1, α2β2 nAChR subtype (Rattus norvegicus, UniProt P12389+P12390)
T1 construct: expressed in transfected cells
Text: (§1) In order to assess the steric and hydropathic effects of the C-5 substituents of the pyridine on the binding affinity and subtype-selectivity at neuronal nicotinic acetylcholine receptors. […] The binding affinity ratios for a ligand, calculated from its affinities at an α subunit paired with either the β2 osubunit or the β4 subunit, represents a measure of the selectivity of that ligand with regard to the β subunits.

[2] = molecular target: T2, α2β4 nAChR subtype (Rattus norvegicus, UniProt P12389+P12392)
T2 construct: expressed in transfected cells
Text: as §1

[3] = molecular target: T3, α3β2 nAChR subtype (Rattus norvegicus, UniProt P04757+P12390)
T3 construct: expressed in transfected cells
Text: as §1

[4] = molecular target: T4, α3β4 nAChR subtype (Rattus norvegicus, UniProt P04757+P12392)
T4 construct: expressed in transfected cells
Text: as §1

[5] = molecular target: T5, α4β2 nAChR subtype (Rattus norvegicus, UniProt P09483+P12390)
T5 construct: expressed in transfected cells
Text: as §1

[6] = molecular target: T6, α4β4 nAChR subtype (Rattus norvegicus, UniProt P09483+P12392)
T6 construct: expressed in transfected cells
Text: as §1

[7] = molecular target: T7, receptors in rat forebrain (mainly α4β2) (Rattus norvegicus, UniProt P09483+P12390)
T7 construct: from tissue; host or cells: rat forebrain homogenate
Text: as §1
In Vitro Inhibition of ^3H-Epibatidin Binding
The high affinity binding site for ^3H-epibatidin is most certainly binding to the α4β2 subtype of nicotinic receptors. The identity of the low affinity site is still believed to be unknown.
Tissue preparation: Preparations may be performed at 0-4° C. unless otherwise indicated. […] The tissue suspension may then be centrifuged at 27,000×g for 10 min. The supernatant is then discarded and the pellet may then be washed three times by centrifugation at 27,000×g for 10 min in 20 mL fresh buffer, and the final pellet may be resuspended in fresh buffer (400 mL per g of original tissue) and used for binding assays.
Assay: Aliquots of 2.0 mL homogenate may be added to 0.100 mL of test solution and 0.100 mL of ^3H-epibatidin (0.3 nM, final concentration), mixed and incubated for 60 min at room temperature. […] The amount of radioactivity on the filters may be determined by conventional liquid scintillation counting. Specific binding is total binding minus non-specific binding.

[8] = Ki α2β2, Table 5, rat nAChR subtypes
[9] = Ki α2β4, Table 5, rat nAChR subtypes
[10] = Ki α3β2, Table 5, rat nAChR subtypes
[11] = Ki α3β4, Table 5, rat nAChR subtypes
[12] = Ki α4β2, Table 5, rat nAChR subtypes
[13] = Ki α4β4, Table 5, rat nAChR subtypes
[14] = Ki α4β2*, Table 5, *Rat forebrain, mainly α4β2
[15] = Table 3, mean ± SEM of 3 (nicotine, 1: 3 to 6) independent measurements, read-out: Ki α2β2
[16] = Table 3, mean ± SEM of 3 (nicotine, 1: 3 to 6) independent measurements, read-out: Ki α2β4
[17] = Table 3, mean ± SEM of 3 (nicotine, 1: 3 to 6) independent measurements, read-out: Ki α3β2
[18] = Table 3, mean ± SEM of 3 (nicotine, 1: 3 to 6) independent measurements, read-out: Ki α3β4
[19] = Table 3, mean ± SEM of 3 (nicotine, 1: 3 to 6) independent measurements, read-out: Ki α4β2
[20] = Table 3, mean ± SEM of 3 (nicotine, 1: 3 to 6) independent measurements, read-out: Ki α4β4
[21] = Table 5, rat nAChR subtypes, read-out: Ki α2β2
[22] = Table 5, rat nAChR subtypes, read-out: Ki α2β4
[23] = Table 5, rat nAChR subtypes, read-out: Ki α3β4
[24] = Table 5, rat nAChR subtypes, read-out: Ki α4β4

T3 sequence (P12390 25-500): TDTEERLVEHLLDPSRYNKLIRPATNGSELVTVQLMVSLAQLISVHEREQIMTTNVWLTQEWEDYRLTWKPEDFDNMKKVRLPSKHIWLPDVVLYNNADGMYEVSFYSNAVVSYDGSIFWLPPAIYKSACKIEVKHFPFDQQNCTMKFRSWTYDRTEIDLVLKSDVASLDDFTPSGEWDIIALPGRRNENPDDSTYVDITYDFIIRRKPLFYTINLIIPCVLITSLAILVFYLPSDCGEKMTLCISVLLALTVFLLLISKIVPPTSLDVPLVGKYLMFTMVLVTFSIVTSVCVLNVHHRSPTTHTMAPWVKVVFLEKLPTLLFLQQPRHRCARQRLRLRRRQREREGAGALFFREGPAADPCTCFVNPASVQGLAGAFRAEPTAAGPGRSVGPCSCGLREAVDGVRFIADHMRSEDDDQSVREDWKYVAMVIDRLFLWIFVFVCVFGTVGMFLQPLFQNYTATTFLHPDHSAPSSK
T3 sequence (P04757 26-499): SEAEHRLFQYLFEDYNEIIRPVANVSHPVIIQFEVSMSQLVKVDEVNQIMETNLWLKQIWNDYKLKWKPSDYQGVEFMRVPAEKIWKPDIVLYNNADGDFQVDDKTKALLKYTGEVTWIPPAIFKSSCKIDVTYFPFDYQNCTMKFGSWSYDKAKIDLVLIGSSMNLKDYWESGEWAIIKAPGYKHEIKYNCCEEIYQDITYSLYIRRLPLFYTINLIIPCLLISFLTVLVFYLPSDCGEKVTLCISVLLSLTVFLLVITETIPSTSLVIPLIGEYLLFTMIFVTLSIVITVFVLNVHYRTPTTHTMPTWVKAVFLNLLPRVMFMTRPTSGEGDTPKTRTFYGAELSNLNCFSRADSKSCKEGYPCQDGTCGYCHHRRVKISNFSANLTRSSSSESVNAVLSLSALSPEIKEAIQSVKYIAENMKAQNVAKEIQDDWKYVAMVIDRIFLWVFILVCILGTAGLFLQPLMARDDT
T1 sequence (P12390 25-500): as the sequence (P12390 25-500) above
T1 sequence (P12389 28-511): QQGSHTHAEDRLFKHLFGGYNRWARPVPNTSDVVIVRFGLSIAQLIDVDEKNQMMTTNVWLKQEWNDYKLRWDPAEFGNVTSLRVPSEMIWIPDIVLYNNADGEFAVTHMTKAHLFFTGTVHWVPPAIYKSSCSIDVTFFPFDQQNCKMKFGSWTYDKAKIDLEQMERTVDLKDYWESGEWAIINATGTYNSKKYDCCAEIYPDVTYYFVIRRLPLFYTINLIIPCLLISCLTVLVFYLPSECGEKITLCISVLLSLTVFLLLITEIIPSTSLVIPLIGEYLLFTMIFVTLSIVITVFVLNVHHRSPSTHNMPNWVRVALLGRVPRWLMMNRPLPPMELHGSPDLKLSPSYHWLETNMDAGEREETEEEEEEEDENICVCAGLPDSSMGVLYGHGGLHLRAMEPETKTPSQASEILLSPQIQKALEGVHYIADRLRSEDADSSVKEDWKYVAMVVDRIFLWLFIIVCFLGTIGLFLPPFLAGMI
T5 sequence (P12390 25-500): as the sequence (P12390 25-500) above
T5 sequence (P09483 31-630): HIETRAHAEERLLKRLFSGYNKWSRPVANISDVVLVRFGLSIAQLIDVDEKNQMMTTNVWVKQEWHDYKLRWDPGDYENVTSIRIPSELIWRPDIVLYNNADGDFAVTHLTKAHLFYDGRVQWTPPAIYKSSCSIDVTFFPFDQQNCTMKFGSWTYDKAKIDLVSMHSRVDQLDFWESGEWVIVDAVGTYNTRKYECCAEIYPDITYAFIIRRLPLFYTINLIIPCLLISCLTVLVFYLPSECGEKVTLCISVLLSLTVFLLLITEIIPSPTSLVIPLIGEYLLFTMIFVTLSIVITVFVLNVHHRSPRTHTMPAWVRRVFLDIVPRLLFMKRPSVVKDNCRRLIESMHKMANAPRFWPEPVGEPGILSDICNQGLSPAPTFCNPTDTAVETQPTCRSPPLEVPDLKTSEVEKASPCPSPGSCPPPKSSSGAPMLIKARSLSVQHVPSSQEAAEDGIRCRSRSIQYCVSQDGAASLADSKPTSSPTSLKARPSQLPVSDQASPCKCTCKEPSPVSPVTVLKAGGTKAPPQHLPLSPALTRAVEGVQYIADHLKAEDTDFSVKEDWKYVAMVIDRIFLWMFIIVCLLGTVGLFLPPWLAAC
T2 sequence (P12389 28-511): as the sequence (P12389 28-511) above
T2 sequence (P12392 21-495): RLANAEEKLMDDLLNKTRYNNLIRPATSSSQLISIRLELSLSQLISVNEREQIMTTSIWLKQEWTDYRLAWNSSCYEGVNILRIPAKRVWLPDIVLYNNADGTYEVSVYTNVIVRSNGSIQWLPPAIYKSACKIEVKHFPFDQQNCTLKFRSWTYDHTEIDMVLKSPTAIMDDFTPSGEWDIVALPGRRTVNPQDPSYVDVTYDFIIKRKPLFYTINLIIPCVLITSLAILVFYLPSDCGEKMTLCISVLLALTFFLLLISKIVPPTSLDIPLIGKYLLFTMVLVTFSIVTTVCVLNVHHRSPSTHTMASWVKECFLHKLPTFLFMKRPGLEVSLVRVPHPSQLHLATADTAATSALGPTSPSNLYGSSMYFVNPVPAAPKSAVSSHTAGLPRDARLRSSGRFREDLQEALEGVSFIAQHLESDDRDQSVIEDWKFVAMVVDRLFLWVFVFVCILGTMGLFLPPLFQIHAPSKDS
T6 sequence (P12392 21-495): as above
T6 sequence (P09483 31-630): as the sequence (P09483 31-630) above
T7 sequence (P09483 31-630): as above
T7 sequence (P12390 25-500): as the sequence (P12390 25-500) above
T4 sequence (P04757 26-499): as the sequence (P04757 26-499) above
T4 sequence (P12392 21-495): as the sequence (P12392 21-495) above

Structure (SMILES): CCCCCC#Cc1ccc(C2CC3CCC2N3)cn1 (stereo not shown) [Ligand 34]
- Ki [1, 8]: 16.9 nM
- Ki [2, 9]: 67.4 nM
- Ki [3, 10]: 19.8 nM
- Ki [4, 11]: 95.4 nM
- Ki [5, 12]: 67.7 nM
- Ki [6, 13]: 61.8 nM
- Ki [7, 14]: 52 nM

Structure (SMILES): Clc1cc2c(cn1)C1C3CCC(N3)C1CC2 (stereo not shown) [Ligand 37a]
- Ki [1, 8]: 294 nM
- Ki [1, 15]: 290 nM
- Ki [2, 9]: 693 nM
- Ki [2, 16]: 717 nM
- Ki [3, 10]: 345 nM
- Ki [3, 17]: 354 nM
- Ki [4, 11]: 2170 nM
- Ki [4, 18]: 2280 nM
- Ki [5, 12]: 67.4 nM
- Ki [5, 19]: 73 nM
- Ki [6, 13]: 672 nM
- Ki [6, 20]: 637 nM
- Ki [7, 14]: 339 nM

Structure (SMILES): Clc1ccc2c(n1)CCC1C3CCC(N3)C21 (stereo not shown) [Ligand 37b]
- Ki [1, 15]: 59 nM
- Ki [1, 21]: 59.4 nM
- Ki [2, 16]: 32 nM
- Ki [2, 22]: 32.2 nM
- Ki [3, 10]: 541 nM
- Ki [3, 17]: 530 nM
- Ki [4, 18]: 201 nM
- Ki [4, 23]: 201 nM
- Ki [5, 12]: 210 nM
- Ki [5, 19]: 295 nM
- Ki [6, 13]: 39.8 nM
- Ki [6, 20]: 41 nM
- Ki [7, 14]: 576 nM

Structure (SMILES): FCCCCC#Cc1cncc(OC[C@@H]2CCN2)c1 [Ligand 41, 5-(6-Fluoro-1-hexynyl)-3-(2(S)-azetidinylmethoxy)pyridine]
- Ki [1, 8]: 0.796 nM
- Ki [2, 9]: 197 nM
- Ki [3, 10]: 0.635 nM
- Ki [4, 11]: 5490 nM
- Ki [5, 12]: 0.201 nM
- Ki [6, 13]: 118 nM
- Ki [7, 14]: 0.362 nM

Structure (SMILES): FCCCCC#Cc1cncc(OC[C@@H]2CCCN2)c1 [Ligand 42, 5-(6-Fluoro-1-hexynyl)-3-(2(S)-pyrrolidinylmethoxy)pyridine]
- Ki [1, 8]: 3.5 nM
- Ki [2, 9]: 680 nM
- Ki [3, 10]: 5.27 nM
- Ki [4, 11]: 7580 nM
- Ki [5, 12]: 0.907 nM
- Ki [6, 13]: 721 nM
- Ki [7, 14]: 3.45 nM

Structure (SMILES): Clc1cc2c(cn1)C1(CC2)CC2CCC1N2 (stereo not shown) [Ligand 58a]
- Ki [1, 8]: 12800 nM
- Ki [1, 15]: 12600 nM
- Ki [2, 9]: 11600 nM
- Ki [2, 16]: 10700 nM
- Ki [3, 10]: 16000 nM
- Ki [3, 17]: 19700 nM
- Ki [4, 11]: 36700 nM
- Ki [4, 18]: 14900 nM
- Ki [5, 12]: 28000 nM
- Ki [5, 19]: 29200 nM
- Ki [6, 13]: 10200 nM
- Ki [6, 20]: 10500 nM
- Ki [7, 14]: 54400 nM

Structure (SMILES): Clc1ccc2c(n1)CCC21CC2CCC1N2 (stereo not shown) [Ligand 58b]
- Ki [1, 8]: 2460 nM
- Ki [2, 9]: 7090 nM
- Ki [2, 16]: 7180 nM
- Ki [3, 10]: 3660 nM
- Ki [3, 17]: 4070 nM
- Ki [4, 11]: 14900 nM
- Ki [4, 18]: 13800 nM
- Ki [5, 12]: 5050 nM
- Ki [5, 19]: 6990 nM
- Ki [6, 20]: 9460 nM
- Ki [6, 24]: 9560 nM
- Ki [7, 14]: 12100 nM

Structure (SMILES): Clc1ccc(C2CC3CCC2N3CCCN2C3CCC2C(c2ccc(Cl)nc2)C3)cn1 (stereo not shown) [Ligand 59b, Propane-1,3-N,N′-bisepibatidine]
- Ki [1, 21]: 6.08 nM
- Ki [2, 22]: 15.7 nM
- Ki ([3]; Table 5, rat nAChR subtypes, read-out: Ki α3β2): 5.17 nM
- Ki [4, 23]: 62.9 nM
- Ki ([5]; Table 5, rat nAChR subtypes, read-out: Ki α4β2): 8.66 nM
- Ki [6, 24]: 23.3 nM
- Ki ([7]; Table 5, *Rat forebrain, mainly α4β2, read-out: Ki α4β2*): 10.1 nM

Structure (SMILES): c1cncc(OC[C@@H]2CCN2)c1 [Ligand A-85380, reference compound]
- Ki [1, 8]: 0.073 nM
- Ki [2, 9]: 18.4 nM
- Ki ([2]; Ki α2β4, Table 6, [3H]-EB 0.099 nM, 0.091 nM, ligand 0.00197-100 μM, n = 1): 18.4 nM
- Ki [3, 10]: 0.208 nM
- Ki ([3]; Ki α3β2, Table 6, [3H]-EB 0.099 nM, 0.091 nM, ligand 0.00197-100 μM, n = 1): 0.208 nM
- Ki [4, 11]: 77.7 nM
- Ki ([4]; Ki α3β4, Table 6, [3H]-EB 0.099 nM, 0.091 nM, ligand 0.00197-100 μM, n = 1): 77.7 nM
- Ki [5, 12]: 0.142 nM
- Ki ([5]; Ki α4β2, Table 6, [3H]-EB 0.099 nM, 0.091 nM, ligand 0.00197-100 μM, n = 1): 0.142 nM
- Ki [6, 13]: 8.04 nM
- Ki ([6]; Ki α4β4, Table 6, [3H]-EB 0.099 nM, 0.091 nM, ligand 0.00197-100 μM, n = 1): 8.04 nM
- Ki ([7]; Ki α4β2**, Table 6, **Forebrain mainly α4β2, [3H]-EB 0.099 nM, 0.091 nM, n = 1): 0.248 nM
- Ki [7, 14]: 0.248 nM

Structure (SMILES): O=c1cccc2n1C[C@H]1C[C@@H]2CN(CCCCl)C1 [ZW-16]
- Ki [1]: 1340 nM
- Ki [2]: 2630 nM
- Ki [3]: > 1000 nM
- Ki [4]: > 10000 nM
- Ki [5]: 571 nM
- Ki [6]: 732 nM
- Ki [7]: 1500 nM

Structure (SMILES): O=c1cccc2n1C[C@H]1C[C@@H]2CN(CCCOc2cccnc2)C1 [ZW-17]
- Ki [1]: 2980 nM
- Ki [2]: 14000 nM
- Ki [3]: > 1000 nM
- Ki [4]: > 10000 nM
- Ki [5]: 3110 nM
- Ki [6]: 3230 nM
- Ki [7]: 4550 nM
